Measurements taken from US9266829B2, “Quinone compounds and their uses for the treatment of cancer” (Onco-NX Limited, priority 2012, dated 2016).
Values after ≈ are worked out from the molar mass of the structure shown. Values joined by “and” are separate entries in the source; they are usually repeats but may differ in a detail not shown here. Equal values may be shown once. Read-outs that look alike come from different tables or passages of the source.

How the values were obtained:
MDA468 = experiment: IC50 by MTT assay on MDA468 cells; format: cell-based, human
MDA NQ01 = experiment: IC50 by MTT assay on NQ01 cells; format: cell-based, human; conditions: for MDA468 to NQ01 differential: ratio of IC50 values
physchem [1] = format: physicochemical; conditions: buffer, pH 7
physchem [2] = format: physicochemical; conditions: buffer, pH 7.4
Experimental: The stability of esters and their hydrolysis products was measured in solution. (50 μM Es5 in Tris buffer (0.1 mol dm^−3) at pH 7.4). Samples were taken at timed intervals up to 24 hours and analysed by HPLC. The detection wavelength was 330 nm. Chromatographic analysis was carried out by isocratic elution with 30:70 MeOH: Tris buffer (0.1 mol dm^−3, pH 7.4), at 1 ml min^−1. The chromatographic separation of the drug was achieved using a Hypersil ODS column with 250 mm×4.6 mm I.D.

H460 NSCLC = experiment: In vivo hollow fibre assay, H460; conditions: fibres at s.c. site; i.p. dosing days 3-6; nude mice
Experimental: (§1) The activity of Es5 (4.65) was evaluated in vivo against 3 cancer cell lines H460, MDA-MB-468-NQ01 and MDA-MB-468-MOCK using the in vivo hollow fibre assay (HFA), with fibres implanted at both intraperitoneal (i.p.) and subcutaneous (s.c.) sites. Es5 and the control agent Doxorubicin were administered as multiple doses by intraperitoneal injection (i.p.) on days 3, 4, 5 & 6 at 0.5 mg/kg/day and 2.5 mg/kg/day respectively.
(§2) Three human tumour cell lines were selected for analysis: H460 NSCLC (from ICT) and two breast carcinoma lines MDA-MB-468-NQ01 and MDA-MB-468-MOCK (both supplied by Onco-NX). Cells were cultured in RPMI 1640 cell culture medium supplemented with 1 mM sodium pyruvate, 2 mM L-glutamine and 10% foetal bovine serum (all from Sigma), and maintained as monolayer cultures at 37° C. in a humidified 5% CO2 environment.
(§3) Female Balb/C immunodeficient nude mice aged 6-8 weeks were used (Harlan UK, Blackthorn, UK). Mice were kept in cages housed in isolation cabinets in an air-conditioned room with regular alternating cycles of light and darkness. They received Teklad 2018 diet (Harlan, Blackthorn, UK) and water ad libitum. All animal procedures were carried out under a project licence issued by the UK Home Office and UKCCCR guidelines were followed throughout.
Cells were loaded into sterilised colour-coded PVDF Spectra/Por hollow fibres (HF) (Spectrum Medical Inc, Houston, Tex., USA). Briefly cells were harvested and resuspended in cell culture medium at the required cell density. This preparation was then loaded into the HF and the ends were clamped and heat-sealed. […]
(§4) Mice were sacrificed on day 7 post-implantation, fibres removed, and cell survival analysed using a modified MTT assay, comparing absorbances seen for the treated groups with the corresponding untreated control group. […]

MDA-MB-468-NQ01 = experiment: In vivo hollow fibre assay, MDA-MB-468-NQ01; design: species or system mice
Experimental: as §1, §2, §3
Cells were loaded into sterilised colour-coded PVDF Spectra/Por hollow fibres (HF) (Spectrum Medical Inc, Houston, Tex., USA). Briefly cells were harvested and resuspended in cell culture medium at the required cell density. This preparation was then loaded into the HF and the ends were clamped and heat-sealed. The HF was then cut into 1.5 cm lengths which were again heat-sealed at both ends, and then transferred to 6-well plates containing medium before implantation for the in vivo experiments, or were incubated at 37° C. in a humidified 5% CO2 environment for varying times before processing using the modified MTT assay as described below.
For the in vivo experiments, under brief inhalation anaesthesia (2% isoflurane), one loaded hollow fibre for each of the cell lines was transplanted intraperitoneally or subcutaneously on the dorsal flank of each mouse and the mice were allowed to recover. Each group consisted of 6 mice and the implantation day was termed ‘day 0’.
For assessment of the therapeutic response of Es5 (4.65), on days 3, 4, 5 & 6 mice were treated with Es5 (4.65) at 0.5 mg/kg/day or Doxorubicin at 2.5 mg/kg/day.
Mice were sacrificed on day 7 post-implantation, fibres removed, and cell survival analysed using a modified MTT assay, comparing absorbances seen for the treated groups with the corresponding untreated control group. Statistical analysis was carried out using a Student's t-test.

MDA-MB-468-MOCK = experiment: In vivo hollow fibre assay, MDA-MB-468-MOCK; conditions: fibres at s.c. site; i.p. dosing days 3-6; nude mice
Experimental: as §1, §2
as §3, with “All animal procedures were carried out under a project licence issued by the UK Home Office and UKCCCR guidelines were followed throughout.” left out
as §4

recombinant human DTD = recombinant human DTD (Homo sapiens, UniProt P15559); conditions: Beall et al.; Ross et al.; cited from earlier work
[3] = Stability in aqueous and organic solution
MDA468 cells = experiment: Combination index at IC50 with other anti-cancer agents in MDA468 cells; format: cell-based, human
[4] = Solubility (aqueous and organic)
NQ01 cells = experiment: Combination index at IC50 with other anti-cancer agents in NQ01 cells; format: cell-based, human
[5] = cited from earlier work

Sequence of recombinant human DTD (P15559 whole entry): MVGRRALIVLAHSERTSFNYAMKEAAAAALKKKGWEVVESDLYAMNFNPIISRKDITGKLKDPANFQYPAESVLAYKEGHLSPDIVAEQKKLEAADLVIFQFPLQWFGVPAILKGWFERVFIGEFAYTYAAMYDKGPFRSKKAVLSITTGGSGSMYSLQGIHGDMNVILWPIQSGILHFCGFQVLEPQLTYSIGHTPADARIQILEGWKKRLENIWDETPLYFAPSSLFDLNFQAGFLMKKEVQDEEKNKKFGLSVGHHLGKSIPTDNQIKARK

O=c1[nH]cc(F)c(=O)[nH]1 [5-fluorouracil]
IC50 (MDA468; Homo sapiens): 7960 nM | IC50 (MDA NQ01; Homo sapiens, MTT assay): 12000 nM

N.N.[Cl][Pt][Cl] [Cisplatin]
IC50 (MDA468): 675 nM | IC50 (MDA NQ01; MTT assay): 570 nM

[Cl][Co][Cl] [Cobalt chloride]
IC50 (MDA468): 35000 nM | IC50 (MDA NQ01; MTT assay): 54000 nM

COc1cccc(C(=O)OCC2=C(N3CC3)C(=O)C(C)=C(N3CC3)C2=O)c1OC [Compound 4-05]
half-life (physchem [1]): < 10 min

COc1ccc(OC)c(C(=O)OCC2=C(N3CC3)C(=O)C(C)=C(N3CC3)C2=O)c1 [Compound 4-07]
half-life (physchem [1]): < 20 min

COc1ccc(C(=O)OCC2=C(N3CC3)C(=O)C(C)=C(N3CC3)C2=O)cc1OC [Compound 4-09]
half-life (physchem [1]): < 30 min

COc1ccc(C(=O)OCC2=C(N3CC3)C(=O)C(C)=C(N3CC3)C2=O)c(OC)c1 [Compound 4-10]
half-life (physchem [1]): < 30 min

COc1cccc(OC)c1C(=O)OCC1=C(N2CC2)C(=O)C(C)=C(N2CC2)C1=O [Compound 4-11]
half-life (physchem [1]): < 30 min

COc1cc(C(=O)OCC2=C(N3CC3)C(=O)C(C)=C(N3CC3)C2=O)cc(OC)c1OC [Compound 4-14]
half-life (physchem [1]): < 30 min

CC1=C(N2CC2)C(=O)C(COC(=O)c2ccc([N+](=O)[O-])cc2)=C(N2CC2)C1=O [Compound 4-20]
half-life (physchem [1]): 20 min

CC1=C(N2CC2)C(=O)C(COC(=O)C(C)C)=C(N2CC2)C1=O [Compound 4-36]
half-life (physchem [1]): < 30 min

CCC(=O)OCC1=C(N2CC2)C(=O)C(C)=C(N2CC2)C1=O [Compound 4-38]
half-life (physchem [1]): 20 min

CC1=C(N2CC2)C(=O)C(COC(=O)C(C)(C)C)=C(N2CC2)C1=O [Compound 4-39]
half-life (physchem [1]): < 30 min

CC1=C(N2CC2)C(=O)C(CCCO)=C(N2CC2)C1=O [Compound 4-61, 2,5-Bisaziridin-1-yl-3-(3-hydroxypropyl)-6-methyl-1,4-benzoquinone]
half-life at 50 μM (physchem [2]): > 1440 min | IC50 (MDA468; Homo sapiens): 17 nM | IC50 (MDA NQ01; Homo sapiens, MTT assay): 0.41 nM | DT diaphorase enhancement ratio (MDA NQ01; IC50 MDA 468 / IC50 MDA NQO1): 41 | selectivity towards cells that express DT-diaphorase (MDA NQ01; IC50 values, MTT assay): excellent selectivity | half-life at 50 μM (physchem [1]): > 1440 min

CC(=O)OCCC1=C(N2CC2)C(=O)C(C)=C(N2CC2)C1=O [Compound 4-70]
half-life (physchem [1]): < 60 min

CC1=C(N2CC2)C(=O)C(CCOC(=O)c2ccccc2)=C(N2CC2)C1=O [Compound 4-71]
half-life (physchem [1]): < 60 min

Nc1ccn([C@@H]2O[C@H](CO)[C@@H](O)[C@@H]2O)c(=O)n1 [Cytosine arabinoside (ARA-C), Cytosine arabinoside]
IC50 (MDA468): 250 nM | IC50 (MDA NQ01; MTT assay): 240 nM

CC(=O)O[C@@]12CO[C@@H]1C[C@H](O)[C@@]1(C)C(=O)[C@H](O)C3=C(C)[C@@H](OC(=O)[C@H](O)[C@@H](NC(=O)OC(C)(C)C)c4ccccc4)C[C@@](O)([C@@H](OC(=O)c4ccccc4)[C@H]21)C3(C)C [Docetaxel]
IC50 (MDA468; Homo sapiens): 1.15 nM | IC50 (MDA NQ01; Homo sapiens, MTT assay): 1.88 nM

COc1cccc2c1C(=O)c1c(O)c3c(c(O)c1C2=O)C[C@@](O)(C(=O)CO)C[C@@H]3O[C@H]1C[C@H](N)[C@H](O)[C@H](C)O1 [Doxorubicin, reference compound]
cell survival compared to the untreated control, H460, s.c. site (H460 NSCLC): did not demonstrate significant efficacy | cell survival compared to the untreated control, MDA-MB-468-NQ01, s.c. site (MDA-MB-468-NQ01; fibres at s.c. site, i.p. dosing days 3-6, nude mice): did not demonstrate significant efficacy | efficacy in the NQ01-expressing compared to the Mock MDA-MB-468 cell line (MDA-MB-468-NQ01; hollow fibre assay): little difference | cell survival compared to the untreated control, MDA-MB-468-MOCK, s.c. site (MDA-MB-468-MOCK): did not demonstrate significant efficacy

COc1cccc2c1C(=O)c1c(O)c3c(c(O)c1C2=O)C[C@@](O)(C(=O)CO)C[C@@H]3O[C@H]1C[C@H](N)[C@@H](O)[C@H](C)O1 [Epirubicin]
IC50 (MDA468; Homo sapiens): 23.2 nM | IC50 (MDA NQ01; Homo sapiens, MTT assay): 27.5 nM

CC1=C(N2CC2)C(=O)C(C)=C(N2CC2)C1=O [MeDZQ, 2,5-diaziridinyl-3,6-dimethyl-1,4-benzoquinone]
effectiveness as a substrate for recombinant human DTD relative to mitomycin C (recombinant human DTD): more than 150 fold

CN(Cc1cnc2nc(N)nc(N)c2n1)c1ccc(C(=O)N[C@@H](CCC(=O)O)C(=O)O)cc1 [Methotrexate]
IC50 (MDA468; Homo sapiens): 45 nM | IC50 (MDA NQ01; Homo sapiens, MTT assay): 27 nM

CO[C@@]12[C@H](COC(N)=O)C3=C(C(=O)C(C)=C(N)C3=O)N1C[C@@H]1N[C@@H]12 [Mitomycin C]
IC50 (MDA468): 50 nM | IC50 (MDA NQ01; MTT assay): 10 nM | MDA468 to NQ01 differential (MDA NQ01): ~5 fold

CC1=C(N2CC2)C(=O)C(CO)=C(N2CC2)C1=O [RH1, 2,5-diaziridiny 1-3-(hydroxymethyl)-6-methyl-1,4-benzoquinone]
Stability (aqueous) [3]: >7 days | Stability (organic) ([3]; in words): months | IC50 (MDA468): 4.41 nM and 3.5 nM | IC50 (MDA NQ01; MTT assay): 0.12 nM | MDA468 to NQ01 differential (MDA NQ01): > 30 fold | Combination index at IC50 with ARC-C in MDA468 cells (MDA468 cells; with ARC-C): 1.45 (slight | Combination index at IC50 with Cis-platinum in MDA468 (MDA468 cells; with Cis-platinum): 0.499 (synergy) | Combination index at IC50 with Docetaxel in MDA468 cells (MDA468 cells; with Docetaxel): 0.850 (slight | Combination index at IC50 with Epirubicin in MDA468 cells (MDA468 cells; with Epirubicin): 4.81 (strong | Combination Index at IC50 with Mitomycin C in MDA468 cells (MDA468 cells; with Mitomycin C): 0.577 (synergy) | Combination index at IC50 with cobalt chloride in MDA468 cells (MDA468 cells; with cobalt chloride): 0.170 (strong | Solubility (organic) ([4]; DMSO/chloroform): >30 mg/mL | Solubility (aqueous) ([4]; water): 0.5 mg/mL (water) (≈ 2.13 mM) | Temperature stability, t90 (Temperature stability; 4 C.): 4 C. t90 >7 days | Temperature stability, t90 (Temperature stability; 40 C.): 40 C. t90 2 days | Temperature stability, t1/2 (Temperature stability; 55 C.): 55 C. t1/2 2 days | Temperature stability, t90 (Temperature stability; Ambient): Ambient t90 3 days | Combination index at IC50 with ARA-C in NQ01 cells (NQ01 cells; with ARA-C): 1.22 (slight | Combination index at IC50 with Cis-platinum in MDA NQ01 (NQ01 cells; with Cis-platinum): 0.672 (synergy) | Combination index at IC50 with Docetaxel in NQ01 cells (NQ01 cells; with Docetaxel): 0.864 (slight | Combination index at IC50 with Epirubicin in NQ01 cells (NQ01 cells; with Epirubicin): 2.09 (antagonism) | Combination Index at IC50 with Mitomycin C in NQ01 cells (NQ01 cells; with Mitomycin C): 1.2 (slight | Combination index at IC50 with cobalt chloride in NQ01 cells (NQ01 cells; with cobalt chloride): 0.80 (moderate | pH stability, t1/2 ([5]; pH 4.16, from AAPS PharmSciTech 2007): t1/2 = 0.07 days | pH stability, t1/2 ([5]; pH 7.33, from AAPS PharmSciTech 2007): t1/2 = 43.52 days | pH stability, t1/2 ([5]; pH 9.82, nearest comparison from AAPS PharmSciTech 2007, 8 (1) Article 16): t1/2 = 0.96 days

CC[C@]1(O)C[C@@H]2CN(CCc3c([nH]c4ccccc34)[C@@](C(=O)OC)(c3cc4c(cc3OC)N(C)[C@H]3[C@@](O)(C(=O)OC)[C@H](OC(C)=O)[C@]5(CC)C=CCN6CC[C@]43[C@@H]65)C2)C1 [Vinblastine]
IC50 (MDA468; Homo sapiens): 16 nM | IC50 (MDA NQ01; Homo sapiens, MTT assay): 18.3 nM
